Measurements as given in PubChem BioAssay AID1963845 (Molecular Pharmacology Branch, DTP, NCI, 2024).

Tested on: 429239-143-T-J1-PDC complex spheroid viability
Experiment: Anticancer human tumor 429239-143-T-J1-PDC patient-derived small cell lung carcinoma cell line growth inhibition [POLQ]
Details: for IC50: curve of first compound; for viability, T/C: stronger effect = lower value
How it was run: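 Three-cell-type spheroids modelling solid tumor plus stroma served as the readout system; POL inhibitors were tested individually and in combination, concentration ranges set by clinical Cmax where known.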

[1] = second compound 0.0316 µM, first compound 0.0316 µM
[2] = second compound 0.0316 µM, first compound 0.1 µM
[3] = second compound 0.0316 µM, first compound 0.316 µM
[4] = second compound 0.0316 µM, first compound 1 µM
[5] = second compound 0.0316 µM, first compound 3.16 µM
[6] = second compound 0.0316 µM, first compound 10 µM
[7] = second compound 0.1 µM, first compound 0.0316 µM
[8] = second compound 0.1 µM, first compound 0.1 µM
[9] = second compound 0.1 µM, first compound 0.316 µM
[10] = second compound 0.1 µM, first compound 1 µM
[11] = second compound 0.1 µM, first compound 3.16 µM
[12] = second compound 0.1 µM, first compound 10 µM
[13] = second compound 0.316 µM, first compound 0.0316 µM
[14] = second compound 0.316 µM, first compound 0.1 µM
[15] = second compound 0.316 µM, first compound 0.316 µM
[16] = second compound 0.316 µM, first compound 1 µM
[17] = second compound 0.316 µM, first compound 3.16 µM
[18] = second compound 0.316 µM, first compound 10 µM
[19] = second compound 1 µM, first compound 0.0316 µM
[20] = second compound 1 µM, first compound 0.1 µM
[21] = second compound 1 µM, first compound 0.316 µM
[22] = second compound 1 µM, first compound 1 µM
[23] = second compound 1 µM, first compound 3.16 µM
[24] = second compound 1 µM, first compound 10 µM
[25] = second compound 3.16 µM, first compound 0.0316 µM
[26] = second compound 3.16 µM, first compound 0.1 µM
[27] = second compound 3.16 µM, first compound 0.316 µM
[28] = second compound 3.16 µM, first compound 1 µM
[29] = second compound 3.16 µM, first compound 3.16 µM
[30] = second compound 3.16 µM, first compound 10 µM
[31] = second compound 10 µM, first compound 0.0316 µM
[32] = second compound 10 µM, first compound 0.1 µM
[33] = second compound 10 µM, first compound 0.316 µM
[34] = second compound 10 µM, first compound 1 µM
[35] = second compound 10 µM, first compound 3.16 µM
[36] = second compound 10 µM, first compound 10 µM
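Also: luminescence signal used as surrogate measure of viable cells; spheroids exposed to compounds for seven days before readout.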
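For viability, T/C in this document: 100% = DMSO vehicle control viability as luminescence relative to vehicle.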

## CC(C)n1c(=O)n(C)c2cnc3cc(F)c(-c4ccc(OCCCN5CCCCC5)nc4)cc3c21 + Nc1ccc(C#CCN(C(=O)Cc2ncc(C(F)(F)F)cc2C(F)(F)F)c2ccc(F)cc2)nn1
Second compound 0.0316 µM
  IC50: > 10 µM
Second compound 0.1 µM
  IC50: > 10 µM
Second compound 0.316 µM
  IC50: > 10 µM
Second compound 1 µM
  IC50: > 10 µM
Second compound 3.16 µM
  IC50: > 10 µM
Second compound 10 µM
  IC50: > 10 µM
[1]
  viability, T/C: 98.5%
[2]
  viability, T/C: 107%
[3]
  viability, T/C: 92.2%
[4]
  viability, T/C: 109%
[5]
  viability, T/C: 102%
[6]
  viability, T/C: 97.8%
[7]
  viability, T/C: 102%
[8]
  viability, T/C: 105%
[9]
  viability, T/C: 99.9%
[10]
  viability, T/C: 102%
[11]
  viability, T/C: 106%
[12]
  viability, T/C: 90.9%
[13]
  viability, T/C: 101%
[14]
  viability, T/C: 107%
[15]
  viability, T/C: 93.3%
[16]
  viability, T/C: 104%
[17]
  viability, T/C: 106%
[18]
  viability, T/C: 91.1%
[19]
  viability, T/C: 99.1%
[20]
  viability, T/C: 101%
[21]
  viability, T/C: 105%
[22]
  viability, T/C: 102%
[23]
  viability, T/C: 105%
[24]
  viability, T/C: 93%
[25]
  viability, T/C: 97.1%
[26]
  viability, T/C: 91.4%
[27]
  viability, T/C: 98.9%
[28]
  viability, T/C: 98.6%
[29]
  viability, T/C: 100%
[30]
  viability, T/C: 91.1%
[31]
  viability, T/C: 105%
[32]
  viability, T/C: 103%
[33]
  viability, T/C: 97.3%
[34]
  viability, T/C: 99.4%
[35]
  viability, T/C: 91.5%
[36]
  viability, T/C: 94.3%

## CC1COCCN1c1cc(C2(S(C)(=N)=O)CC2)nc(-c2ccnc3[nH]ccc23)n1 (stereo unspecified) + Nc1ccc(C#CCN(C(=O)Cc2ncc(C(F)(F)F)cc2C(F)(F)F)c2ccc(F)cc2)nn1
Second compound 0.0316 µM
  IC50: > 10 µM
Second compound 0.1 µM
  IC50: 9.98 µM
Second compound 0.316 µM
  IC50: 9.92 µM
Second compound 1 µM
  IC50: > 10 µM
Second compound 3.16 µM
  IC50: 8.71 µM
Second compound 10 µM
  IC50: 7.19 µM
[1]
  viability, T/C: 90.4%
[2]
  viability, T/C: 105%
[3]
  viability, T/C: 100%
[4]
  viability, T/C: 91%
[5]
  viability, T/C: 80.4%
[6]
  viability, T/C: 53.3%
[7]
  viability, T/C: 109%
[8]
  viability, T/C: 104%
[9]
  viability, T/C: 94.6%
[10]
  viability, T/C: 95.2%
[11]
  viability, T/C: 84.8%
[12]
  viability, T/C: 49%
[13]
  viability, T/C: 99.9%
[14]
  viability, T/C: 97.7%
[15]
  viability, T/C: 97.2%
[16]
  viability, T/C: 92.5%
[17]
  viability, T/C: 77.2%
[18]
  viability, T/C: 49.6%
[19]
  viability, T/C: 113%
[20]
  viability, T/C: 91.2%
[21]
  viability, T/C: 90.2%
[22]
  viability, T/C: 90.2%
[23]
  viability, T/C: 79.2%
[24]
  viability, T/C: 51.6%
[25]
  viability, T/C: 99.1%
[26]
  viability, T/C: 86.8%
[27]
  viability, T/C: 90.7%
[28]
  viability, T/C: 95.2%
[29]
  viability, T/C: 79.6%
[30]
  viability, T/C: 46%
[31]
  viability, T/C: 95.5%
[32]
  viability, T/C: 91.4%
[33]
  viability, T/C: 101%
[34]
  viability, T/C: 83.9%
[35]
  viability, T/C: 79.7%
[36]
  viability, T/C: 38.5%

## CCc1cc2c(N3CCc4c(cc(Cn5ccnc5)cc4-c4cn(C)nc4C(F)(F)F)C3=O)cc(C)nc2c(OC)n1 + Nc1ccc(C#CCN(C(=O)Cc2ncc(C(F)(F)F)cc2C(F)(F)F)c2ccc(F)cc2)nn1
Second compound 0.0316 µM
  IC50: 7.23 µM
Second compound 0.1 µM
  IC50: 8.6 µM
Second compound 0.316 µM
  IC50: 8.7 µM
Second compound 1 µM
  IC50: 7.14 µM
Second compound 3.16 µM
  IC50: 7.93 µM
Second compound 10 µM
  IC50: 4.85 µM
[1]
  viability, T/C: 104%
[2]
  viability, T/C: 94.1%
[3]
  viability, T/C: 91.3%
[4]
  viability, T/C: 77.4%
[5]
  viability, T/C: 72.1%
[6]
  viability, T/C: 41.3%
[7]
  viability, T/C: 98.7%
[8]
  viability, T/C: 88.1%
[9]
  viability, T/C: 85.8%
[10]
  viability, T/C: 82.1%
[11]
  viability, T/C: 74.1%
[12]
  viability, T/C: 45.4%
[13]
  viability, T/C: 103%
[14]
  viability, T/C: 91.4%
[15]
  viability, T/C: 98.7%
[16]
  viability, T/C: 81.2%
[17]
  viability, T/C: 63.4%
[18]
  viability, T/C: 48.1%
[19]
  viability, T/C: 108%
[20]
  viability, T/C: 86.4%
[21]
  viability, T/C: 91.7%
[22]
  viability, T/C: 80.4%
[23]
  viability, T/C: 76%
[24]
  viability, T/C: 40%
[25]
  viability, T/C: 101%
[26]
  viability, T/C: 110%
[27]
  viability, T/C: 88.7%
[28]
  viability, T/C: 71.3%
[29]
  viability, T/C: 58.7%
[30]
  viability, T/C: 46.7%
[31]
  viability, T/C: 104%
[32]
  viability, T/C: 86.2%
[33]
  viability, T/C: 84.2%
[34]
  viability, T/C: 79.3%
[35]
  viability, T/C: 64.6%
[36]
  viability, T/C: 29.9%
